In patent US20080287396A1, “Phosphonated Fluoroquinolones, Antibacterial Analogs Thereof, and Methods for the Prevention and Treatment of Bone and Joint Infections” (TARGANTA THERAPEUTICA INC., priority 2005, published 2008) one finds MIC data, which are given here for one compound.

This assay relates to S. aureus strains ATCC13709 and RN4220. In words: microbe, parasite or virus in culture. The settings on record: Staphylococcus aureus, ATCC13709; CAMHB, 37° C., 18 h; data not shown; read-out: minimum inhibitory concentration (MIC). In kind it is cell-based. As for the experimental part: Susceptibility of S. aureus strains ATCC13709 and RN4220 to the commercial antibiotics and synthesized compounds was determined by following the guidelines set by the Clinical and Laboratory Standards Institute (formerly the National Committee for Clinical Laboratory Standards) (M26-A). Compounds were diluted two-fold serially in DMSO and transferred to cation-adjusted Mueller Hinton broth (CAMHB; Becton Dickinson). 50 μL of compounds diluted in CAMHB was mixed with 100 μL of bacteria diluted in CAMHB in 96-well microtiter plates. The final number of micro-organisms in the assay was 5×10^5 c.f.u. per mL and the final concentration of DMSO in the assay was 1.25%. Assays were set up in duplicate and incubated at 37° C. for 18 h. The concentration of compound that inhibited visible growth was reported as the minimum inhibitory concentration (MIC).

In brackets after ≈: the same amount, converted by molar mass.

On to `COc1c(N2CCNC(C)C2)c(F)cc2c(=O)c(C(=O)OCC(=O)NC(P(=O)(O)O)P(=O)(O)O)cn(C3CC3)c12` (stereo not shown) [Compound 54, (1,1-Bisphosphonomethylcarbamoyl)methyl 7-(3-methylpiperazin-1-yl)-1-cyclopropyl-6-fluoro-1,4-dihydro-8-methoxy-4-oxoquinoline-3-carboxylate], for which the MIC was 4 to 16 µg/mL (≈ 6.6 to 26.4 µM).
